ChEMBL document CHEMBL1143319, “Structure-based virtual screening for novel inhibitors of the sarco/endoplasmic reticulum calcium ATPase and their experimental evaluation” (Bioorg Med Chem, 2009)
pIC50: −log10 of the molar value.

Assay: Inhibition of rabbit hind leg tissue microsomes ATPase activity of SERCA assessed as ATP hydrolysis
Parameters: species or system Oryctolagus cuniculus

Structure (SMILES) | pIC50
CC(=O)C1=C(O)[C@@H]2[C@H]3c4c[nH]c5cccc(c45)C[C@H]3C(C)(C)N2C1=O [CYCLOPIAZONIC ACID] | 6.92
CC(c1ccccc1)c1cc(C(C)(C)C)cc(C(C)(C)C)c1O (centres undefined) | 4.47
Oc1ccc2ccccc2c1Cc1cccc2ccccc12 | 4.56
Oc1cc(Cc2ccccc2)c(Cc2ccccc2)cc1O | 4.62
CC(C)Cc1ccc(CC(C)C)c(O)c1 | 4.73
CCC(C)(c1ccc(O)c(C)c1)c1ccc(O)c(C)c1 | 4.41
Cc1cc(C(C)(C)c2cc(C)c(O)c(C)c2)cc(C)c1O | 4.71
CC(c1ccc(O)cc1)C(C)c1ccc(O)cc1 (centres undefined) | 4.55

More lines, in order of rising pIC50, values ahead:

pIC50 | Structure (SMILES)
4.30 | CC(c1ccccc1)(c1ccccc1)c1ccc(O)cc1
4.34 | COc1ccc(C(C)c2cc(C(C)(C)C)c(O)c(C(C)(C)C)c2)cc1 (centres undefined)
4.45 | COc1ccc(C(C)c2cc(C(C)(C)C)cc(C(C)(C)C)c2O)cc1 (centres undefined)
4.55 | CC(C)(C)c1cc2c(cc1O)CCC2
4.67 | CC(C)(C)c1ccc(O)c(C(c2cc(C(C)(C)C)ccc2O)c2cc(C(C)(C)C)ccc2O)c1
4.76 | CC(C)CCCCCCc1ccc(O)cc1
4.82 | Oc1ccc2ccccc2c1Cc1c(O)ccc2ccccc12
4.93 | CC(C)(C)c1ccc(O)c(Cc2cc(C(C)(C)C)ccc2O)c1
4.94 | Oc1ccc(O)c(C2CCCCCCC2)c1
5.03 | Oc1cc(Cc2ccccc2)c(O)cc1Cc1ccccc1
6.40 | CC(C)(C)c1cc(O)c(C(C)(C)C)cc1O
